Source: US20120264735A1 (priority 2009, published 2012)

target: T1, c-Met kinase (recombinant c-Met) (Homo sapiens, UniProt P08581); experiment: In vitro kinase assay I (homogeneous time-resolved fluorescence tyrosine kinase assay); format: biochemical
T1 construct: 0.27 nM recombinant c-Met
How it was run: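 Biotinylated peptide (0.5 μM) phosphorylated by 0.2 nM recombinant c-Met with 50 μM MgATP, 60 min at room temperature, pH 7.4, 5% DMSO. EDTA stop; HTRF read with Eu-anti-phosphotyrosine antibody and streptavidin-APC. IC50 from 4-parameter logistic fit.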

T1 sequence (P08581 25-1390): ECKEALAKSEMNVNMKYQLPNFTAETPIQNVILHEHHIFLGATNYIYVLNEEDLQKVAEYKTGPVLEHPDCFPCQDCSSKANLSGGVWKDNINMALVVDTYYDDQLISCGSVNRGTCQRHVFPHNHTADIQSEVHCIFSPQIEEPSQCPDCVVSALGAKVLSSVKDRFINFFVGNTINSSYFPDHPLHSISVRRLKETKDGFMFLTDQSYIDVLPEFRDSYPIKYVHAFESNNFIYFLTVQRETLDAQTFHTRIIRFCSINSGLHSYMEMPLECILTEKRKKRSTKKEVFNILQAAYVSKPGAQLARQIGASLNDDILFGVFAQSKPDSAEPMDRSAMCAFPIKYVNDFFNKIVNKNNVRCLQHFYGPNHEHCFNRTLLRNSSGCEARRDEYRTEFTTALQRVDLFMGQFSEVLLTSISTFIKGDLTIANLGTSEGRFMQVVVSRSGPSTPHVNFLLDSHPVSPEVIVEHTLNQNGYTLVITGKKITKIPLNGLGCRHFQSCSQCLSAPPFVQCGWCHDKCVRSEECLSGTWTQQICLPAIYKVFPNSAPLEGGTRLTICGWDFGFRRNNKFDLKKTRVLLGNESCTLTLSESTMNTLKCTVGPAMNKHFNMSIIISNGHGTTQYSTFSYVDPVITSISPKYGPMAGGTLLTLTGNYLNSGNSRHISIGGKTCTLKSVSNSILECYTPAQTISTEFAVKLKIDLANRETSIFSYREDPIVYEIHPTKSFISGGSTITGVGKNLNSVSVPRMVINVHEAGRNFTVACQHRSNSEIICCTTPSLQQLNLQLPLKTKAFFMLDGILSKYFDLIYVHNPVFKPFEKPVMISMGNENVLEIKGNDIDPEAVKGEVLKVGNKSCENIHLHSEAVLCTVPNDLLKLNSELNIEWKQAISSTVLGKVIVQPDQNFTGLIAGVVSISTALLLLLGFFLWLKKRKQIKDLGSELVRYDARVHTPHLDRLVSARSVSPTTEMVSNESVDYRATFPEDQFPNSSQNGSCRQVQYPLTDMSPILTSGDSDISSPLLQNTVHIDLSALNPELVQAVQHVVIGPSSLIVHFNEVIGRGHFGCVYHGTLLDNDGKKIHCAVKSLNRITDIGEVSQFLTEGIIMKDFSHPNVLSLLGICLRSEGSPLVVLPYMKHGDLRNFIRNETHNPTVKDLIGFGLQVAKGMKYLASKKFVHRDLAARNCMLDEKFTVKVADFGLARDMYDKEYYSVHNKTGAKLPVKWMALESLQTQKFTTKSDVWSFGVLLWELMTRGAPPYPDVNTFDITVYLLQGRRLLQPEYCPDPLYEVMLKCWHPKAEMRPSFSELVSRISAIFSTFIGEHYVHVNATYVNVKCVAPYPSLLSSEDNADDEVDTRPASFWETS

| Structure (SMILES) | IC50 [nM] |
| --- | --- |
| CCOC(=O)Nc1cccc(Cc2nn(-c3cc(F)cc(F)c3)ccc2=O)c1 [Example 11, ethyl (3-{[1-(3,5-difluorophenyl)-4-oxo-1,4-dihydropyridazin-3-yl]methyl}phenyl)carbamate] | < 100 |
| O=c1ccn(-c2ccccc2)nc1Cc1cccc(-c2ncccn2)c1 [Example 669, 1-Phenyl-3-[3-(pyrimidin-2-yl)benzyl]pyridazin-4(1H)-one] | 100 to 1000 |
| CC(C)(O)COc1cnc(-c2cccc(Cc3nn(-c4cc(F)c(F)c(F)c4)ccc3=O)c2)nc1 [Example 362, 3-{3-[5-(2-hydroxy-2-methylpropoxy)pyrimidin-2-yl]benzyl}-1-(3,4,5-trifluorophenyl)pyridazin-4(1H)-one] | < 100 |
| Cn1cc(-n2ccc(=O)c(Cc3cccc(NC(=O)OCCCN4CCS(=O)(=O)CC4)c3)n2)cn1 [Example 566, 3-(1,1-dioxidothio-morpholin-4-yl)propyl (3-{[1-(1-methyl-1H-pyrazol-4-yl)-4-oxo-1,4-dihydropyridazin-3-yl]methyl}phenyl)carbamate] | < 100 |
| Cn1cc(-n2ccc(=O)c(Cc3cccc(-c4ncc(Br)cn4)c3)n2)cn1 [Example 465, 3-[3-(5-Bromopyrimidin-2-yl)benzyl]-1-(1-methyl-1H-pyrazol-4-yl)pyridazin-4(1H)-one] | < 100 |
| COCCOc1cnc(-c2cccc(C(C)c3nn(-c4cnn(C)c4)ccc3=O)c2)nc1 (single isomer, unassigned) [Example 223, 3-((1R or S)-1-{3-[5-(2-methoxyethoxy)pyrimidin-2-yl]phenyl}ethyl)-1-(1-methyl-1H-pyrazol-4-yl)pyridazin-4(1H)-one] | < 100 |
| Cn1cc(-n2ccc(=O)c(Cc3cccc(-c4cnccn4)c3)n2)cn1 [Example 38, 1-(1-methyl-1H-pyrazol-4-yl)-3-[3-(pyrazin-2-yl)benzyl]pyridazin-4(1H)-one] | 1000 to 3000 |
| CCOC(=O)c1cnc(-c2cccc(Cc3nn(-c4cnn(C)c4)ccc3=O)c2)o1 [Example 675, ethyl 2-(3-{[1-(1-methyl-1H-pyrazol-4-yl)-4-oxo-1,4-dihydropyridazin-3-yl]methyl}phenyl)-1,3-oxazole-5-carboxylate] | 100 to 1000 |
| CCOC(=O)Nc1cccc(Cc2nn(-c3cncc(F)c3)ccc2=O)c1 [Example 34, ethyl (3-{[1-(5-fluoropyridin-3-yl)-4-oxo-1,4-dihydropyridazin-3-yl]methyl}phenyl)carbamate] | < 100 |
| Cn1cc(-n2ccc(=O)c(Cc3cccc(-c4ncc(OCC(C)(C)O)cn4)c3)n2)cn1 [Example 358, 3-{3-[5-(2-Hydroxy-2-methylpropoxy)pyrimidin-2-yl]benzyl}-1-(1-methyl-1H-pyrazol-4-yl)pyridazin-4(1H)-one] | < 100 |
| CC(C)Cc1nc(-c2cccc(Cc3nn(-c4cnn(C)c4)ccc3=O)c2)no1 [Example 742, 3-{3-[5-(2-methylpropyl)-1,2,4-oxadiazol-3-yl]benzyl}-1-(1-methyl-1H-pyrazol-4-yl)pyridazin-4(1H)-one] | 100 to 1000 |
| CCNC(=O)Nc1cccc(Cc2nn(-c3cnn(C)c3)ccc2=O)c1 [Example 488, 1-ethyl-3-(3-{[1-(1-methyl-1H-pyrazol-4-yl)-4-oxo-1,4-dihydropyridazin-3-yl]methyl}phenyl)urea] | < 100 |
| CCCOC(=O)Nc1cccc(Cc2nn(-c3cc(Cl)nc(Cl)c3)ccc2=O)c1 [Example 56, propyl (3-{[1-(2,6-dichloropyridin-4-yl)-4-oxo-1,4-dihydropyridazin-3-yl]methyl}phenyl)carbamate] | < 100 |
| CCn1cc(-n2ccc(=O)c(Cc3cccc(-c4ncc(OC(C)C)cn4)c3)n2)cn1 [Example 305, 1-(1-ethyl-1H-pyrazol-4-yl)-3-[3-(5-isopropoxypyrimidin-2-yl)benzyl]pyridazin-4(1H)-one] | < 100 |
| Cn1cc(-n2ccc(=O)c(Cc3cccc(NC(=O)NC4CC4)c3)n2)cn1 [Example 492, 1-cyclopropyl-3-(3-{[1-(1-methyl-1H-pyrazol-4-yl)-4-oxo-1,4-dihydropyridazin-3-yl]methyl}phenyl)urea] | 100 to 1000 |
| Cn1cc(-n2ccc(=O)c(Cc3cccc(-c4ncn(C5COC5)n4)c3)n2)cn1 [Example 707, 1-(1-Methyl-1H-pyrazol-4-yl)-3-{3-[1-(oxetan-3-yl)-1H-1,2,4-triazol-3-yl]benzyl}pyridazin-4(1H)-one] | 100 to 1000 |
| Cc1nccc(-c2cccc(Cc3nn(-c4cnn(C)c4)ccc3=O)c2)n1 [Example 40, 1-(1-methyl-1H-pyrazol-4-yl)-3-[3-(2-methylpyrimidin-4-yl)benzyl]pyridazin-4(1H)-one] | 1000 to 3000 |
| Cc1nc(-c2cccc(C(C)c3nn(-c4cnn(C)c4)ccc3=O)c2)ncc1F (single isomer, unassigned) [Example 693, 3-{(1R or S)-1-[3-(5-fluoro-4-methylpyrimidin-2-yl)phenyl]ethyl}-1}-1-(1-methyl-1H-pyrazol-4-yl)pyridazin-4(1H)-one] | 100 to 1000 |
| CCn1cc(-n2ccc(=O)c(C(C)c3cccc(-c4ncc(OCC5(F)CCNCC5)cn4)c3)n2)cn1 (single isomer, unassigned) [Example 338, 1-(1-ethyl-1H-pyrazol-4-yl)-3-[(1R or S)-1-(3-{5-[(4-fluoropiperidin-4-yl)methoxy]pyrimidin-2-yl}phenyl)ethyl]pyridazin-4(1H)-one] | < 100 |
| CCCOC(=O)Nc1cccc(Cc2nn(-c3cccc(Br)c3)ccc2=O)c1 [Example 12, propyl (3-{[1-(3-bromophenyl)-4-oxo-1,4-dihydropyridazin-3-yl]methyl}phenyl)carbamate] | < 100 |

Results, then the molecule that gave them:

| IC50 [nM] | Structure (SMILES) |
| --- | --- |
| < 100 | Cn1cc(-n2ccc(=O)c(Cc3cccc(-c4ncc(OCC5COCCO5)cn4)c3)n2)cn1 (single isomer, unassigned) [Example 348, 3-(3-{5-[(2S or R)-1,4-dioxan-2-ylmethoxy]pyrimidin-2-yl}benzyl)-1-(1-methyl-1H-pyrazol-4-yl)pyridazin-4(1H)-one] |
| 100 to 1000 | CC(C)COC(=O)Nc1cccc(Cc2nn(-c3cnn(CC4CCOCC4)c3)ccc2=O)c1 [Example 102, 2-methylpropyl [3-({4-oxo-1-[1-(tetrahydro-2H-pyran-4-ylmethyl)-1H-pyrazol-4-yl]-1,4-dihydropyridazin-3-yl}methyl)phenyl]carbamate] |
| < 100 | CCn1cc(-n2ccc(=O)c(C(C)c3cccc(-c4ncc(OCC5CCN(C(=O)OC(C)(C)C)CC5)cn4)c3)n2)cn1 (single isomer, unassigned) [Example 291, tert-butyl 4-({[2-(3-{(1R or S)-1-[1-(1-ethyl-1H-pyrazol-4-yl)-4-oxo-1,4-dihydropyridazin-3-yl]ethyl}phenyl)pyrimidin-5-yl]oxy}methyl)piperidine-1-carboxylate] |
| < 100 | Cn1cc(-n2ccc(=O)c(Cc3cccc(-c4ncc(CN5CCC(F)C5)cn4)c3)n2)cn1 (racemic) [Example 431, rac-3-(3-{5-[(3-fluoropyrrolidin-1-yl)methyl]pyrimidin-2-yl}benzyl)-1-(1-methyl-1H-pyrazol-4-yl)pyridazin-4(1H)-one] |
| 100 to 1000 | Cn1cc(-n2ccc(=O)c(Cc3ccc4ncc(OCCN5CCOCC5)cc4c3)n2)cn1 [Example 60, 1-(1-methyl-1H-pyrazol-4-yl)-3-{[3-(2-morpholin-4-ylethoxy)quinolin-6-yl]methyl}pyridazin-4(1H)-one] |
| < 100 | CCc1cnc(-c2cccc(C(C)c3nn(-c4cnn(C)c4)ccc3=O)c2)nc1 (single isomer, unassigned) [Example 236, 3-{(1S or R)-1-[3-(5-ethylpyrimidin-2-yl)phenyl]ethyl}-1-(1-methyl-1H-pyrazol-4-yl)pyridazin-4(1H)-one] |
| < 100 | CCn1cc(-n2ccc(=O)c(C(C)c3cccc(-c4ncc(OCCOC)cn4)c3)n2)cn1 (single isomer, unassigned) [Example 248, 1-(1-ethyl-1H-pyrazol-4-yl)-3-((1R or S)-1-{3-[5-(2-methoxyethoxy)pyrimidin-2-yl]phenyl}ethyl)pyridazin-4(1H)-one] |
| < 100 | CN(CCOC(=O)Nc1cccc(Cc2nn(-c3cc(F)c(F)c(F)c3)ccc2=O)c1)c1ccccc1 [Example 550, 2-[methyl(phenyl)amino]ethyl (3-{[4-oxo-1-(3,4,5-trifluorophenyl)-1,4-dihydropyridazin-3-yl]methyl}phenyl)carbamate] |
| < 100 | COCCOC(=O)Nc1cccc(Cc2nn(-c3cc(Cl)cc(C#N)c3)ccc2=O)c1 [Example 127, 2-methoxyethyl (3-{[1-(3-chloro-5-cyanophenyl)-4-oxo-1,4-dihydropyridazin-3-yl]methyl}phenyl)carbamate] |
| < 100 | CCOC(=O)Nc1cccc(Cc2nn(-c3cccc(C#N)c3)ccc2=O)c1 [Example 135, ethyl (3-{[1-(3-cyanophenyl)-4-oxo-1,4-dihydropyridazin-3-yl]methyl}phenyl)carbamate] |
| < 100 | Cn1cc(-n2ccc(=O)c(Cc3cccc(-c4ncc(OCc5ccsn5)cn4)c3)n2)cn1 [Example 284, 3-{3-[5-(isothiazol-3-ylmethoxy)pyrimidin-2-yl]benzyl}-1-(1-methyl-1H-pyrazol-4-yl)pyridazin-4(1H)-one] |
| < 100 | Cn1cc(-n2ccc(=O)c(Cc3cccc(NC(=O)OCC(N)C(F)(F)F)c3)n2)cn1 (racemic) [Example 619, rac-2-amino-3,3,3-trifluoropropyl (3-{[1-(1-methyl-1H-pyrazol-4-yl)-4-oxo-1,4-dihydropyridazin-3-yl]methyl}phenyl)carbamate] |
| < 100 | CCn1cc(-n2ccc(=O)c(C(C)c3cccc(-c4ncc(OC5CCOC5)cn4)c3)n2)cn1 (single isomer, unassigned) [Example 297, 1-(1-ethyl-1H-pyrazol-4-yl)-3-[(1R or S)-1-{3-[5-(tetrahydrofuran-3-yloxy)pyrimidin-2-yl]phenyl}ethyl]pyridazin-4(1H)-one] |
| < 100 | CCCn1cc(-n2ccc(=O)c(Cc3cccc(-c4ncc(OC)cn4)c3)n2)cn1 [Example 114, 3-[3-(5-methoxypyrimidin-2-yl)benzyl]-1-(1-propyl-1H-pyrazol-4-yl)pyridazin-4(1H)-one] |
